According to PubChem BioAssay AID2305 (GlaxoSmithKline (GSK), 2010):

Test system: P. falciparum 3D7 growth, pLDH absorbance
Assay: blood-stage malaria parasite growth potency – strain 3D7, dose response (AID 2305)

Structure (SMILES) | IC50 [µM]
O=C(c1cc2c(s1)-c1cccc(Cl)c1SC2)N1CCN(c2ccncc2)CC1 | 1.01
CN(C)CCCOc1ccc(CN2CCC(c3c[nH]c4ccc(NCC5CCCCC5)cc34)CC2)cc1 | 0.68
CN1CCCC(COc2cc3c(cc2Br)CCN3C(=O)Nc2ccc(-c3ccncc3)c(Cl)c2)C1 (stereo not given) | 0.23
CC[C@H]1CN2CC[C@@H]1C[C@H]2[C@H](O)c1cc(-c2c(C)noc2C)nc2ccc(OC)cc12 | 0.03
CC(C)CNCc1ccc(-c2ccc(CN(CCCN3CCN(C)CC3)C(=O)/C=C/c3ccccc3)cc2)cc1 | 0.92
Cc1ccc(CN2CCCN(Cc3ccc(C(=O)Nc4ccc(Cl)cc4)cc3)CC2)s1 | 1.11
CN1CCN(Cc2cccc(-c3ccc4c(Nc5ccc(Oc6cccnc6)cc5)ccnc4c3)c2)CC1 | 0.19
CNCCNCc1cccc(-c2ccc(-c3nc4ccccc4[nH]3)cc2)c1 | 0.74
O=C(NC1CCN(CCCc2ccccc2)CC1)c1ccc(-c2cccc(C(F)(F)F)c2)s1 | 0.89
CCCCCCCN(Cc1ccc(OC(C)(C)C(=O)OCC)cc1)C(=O)Nc1ccccc1OC(F)(F)F | 0.97
Cc1cc(C)c(NC(=O)N[C@H]2CCN(CCCCCNC(=O)/C=C/c3ccc(Cl)c(Cl)c3)C2)c(C)c1 | 0.95
Cc1cc(NC(=O)c2ccc(-c3ccccc3)cc2)no1 | 1.02
COc1ccc(CNCc2cccc(-c3ccc(-c4nc5c(C)cccc5[nH]4)s3)c2)cc1 | 0.26
COc1ccc(CN(C)CCCc2ccc(NC(=O)c3cccc4c(=O)c5cccc(F)c5[nH]c34)cc2)cc1OC | 0.94
Oc1ccc(CCNCCCCCCNCCc2ccc(Cl)cc2)c(Cl)c1O | 0.78
O=C(NCCc1ccc(Cl)c(Cl)c1)[C@@H]1CCCN1C(=O)c1ccc(O)c(-c2cccc(C(F)(F)F)c2)c1 | 0.82
CCN(CC)CCOc1ccc(Nc2ncc3cc(-c4c(Cl)cccc4Cl)c(=O)n(C)c3n2)cc1 | 1.18
Fc1ccc2nc(-c3cccc(-c4cccc(CN5CCN(c6cnccn6)CC5)c4)c3)[nH]c2c1 | 1.06
CC(=O)Nc1ccc(S(=O)(=O)N2CCN(c3nc(NC4CCCC4)c4ccccc4n3)CC2)cc1 | 1.03
COc1c(C)cc(I)cc1CNCCCNc1cc(=O)c2ccccc2[nH]1 | 1.28
COc1ccc2nccc(NN=Cc3ccccc3Cl)c2c1 | 0.66
Nc1nc(N)c2c(ccc3c2ccn3Cc2ccc(OCc3ccccc3)cc2)n1 | 0.93
NC(=O)C1CCN(Cc2ccc(-c3ccc(-c4nc5ccc(C(F)(F)F)cc5[nH]4)cc3)cc2)CC1 | 0.68
NC(=O)c1ccsc1NC(=O)CNC(c1ccccc1)c1ccc(Cl)cc1 (stereo not given) | 0.26

Structure (SMILES) | IC50 [µM]
CCCC(C)c1ccc(N2C(N)=NC(N)=NC2(C)C)cc1 (stereo not given) | 0.01
Cn1cnc2c(Nc3ccncc3)nc(-c3ccc4c(c3)OCO4)nc21 | 1.11
CCN(CC)CCN(Cc1ccc(-c2ccc(C(F)(F)F)cc2)cc1)C(=O)Cn1c(CCc2ccc(F)c(F)c2)cc(=O)c2ccccc21 | 0.89
Nc1cccc(CNCc2ccc(-c3ccc(-c4nc5ccccc5[nH]4)s3)cc2)c1 | 0.57
CC1CN(Cc2ccc(-c3ccc(-c4nc5ccccc5[nH]4)cc3)cc2)CC(C)O1 (stereo not given) | 0.52
COc1ccccc1N1CCN(Cc2cc(C(C)C)c(C)cc2O)CC1 | 0.57
COc1ccc(CNc2nc(Nc3cccc(C#N)c3)nc(Nc3cccc(C#N)c3)n2)cc1Cl | 0.18
C=CCc1c(C(=O)NCC23CC4CC(CC(C4)C2)C3)[nH]c2ccccc2c1=O | 1.03
O=C(Cc1cccc(Cl)c1)Nc1ccc(N2CCC(NCc3ccc4ncccc4c3)CC2)cc1 | 1.23
CCN1CCC(NCc2ccc(-c3ccc(Cl)cc3)cc2)CC1 | 1.02
CC1(C)N=C(N)N=C(N)N1c1ccccc1 | 0.33
Cc1cc(C(=O)Nc2ccc(C)c(-c3nc(N(C(=O)c4ccc(F)c(C)c4)C4CCNCC4)nc4c3ccc(=O)n4-c3c(F)cccc3F)c2)ccc1F | 0.32
COc1ccc(Cc2c(Cl)nc3nc(N)nc(N)c3c2C)cc1 | 1.09
Cc1cc2c(cc1C(F)(F)F)N(C(=O)Nc1ccc(C(=O)NC3CCN(Cc4ccccc4)C3)cc1)CC2 (stereo not given) | 0.78
O=C(NC1CCN(CCC[C@]2(c3ccc(Cl)c(Cl)c3)CCCN(C(=O)c3ccccc3)C2)CC1)c1ccc(F)cc1 | 0.88
CN1CCN(Cc2cccc(-c3ccc4c(Nc5cc(O)c(Cl)cc5F)ccnc4c3)c2)CC1 | 0.77
CCNc1cc(C(=O)N[C@@H](Cc2ccccc2)[C@H](O)CN[C@H]2C[C@@H]3CC[C@H]2C3)cc(N2CCCCS2(=O)=O)c1 | 0.24
Cc1cc(N[C@@H](Cc2ccccc2)C(=O)NCCOc2ccccc2)nc(NCCc2ccc(F)cc2)n1 | 0.6
COc1ccc(N2CCN(CCCCNC(=O)c3ccc(NC(=O)c4cc(Cl)cc(Cl)c4)cc3)CC2)c(OC)c1 | 0.3
CC(=O)Nc1ccc(OCCN(CC(C)C)c2ccc(C#N)c(C(F)(F)F)c2)c(Cl)c1 | 0.79
CC(Oc1ccc(NC(=O)c2cccs2)cc1)C(=O)c1ccc(Cl)cc1 (stereo not given) | 0.77
CCN(CCCN1CCCCC1)c1cc(C)nc(Nc2cc(Cl)cc(Cl)c2)n1 | 0.29
Cc1nc(-c2nc(N3CCOCC3)ncc2-c2ccsc2)sc1C | 0.32
COc1ccc(CN2CCC(Oc3cccc(NC(=O)c4ccc(C(F)(F)F)cc4)c3)CC2)cc1 | 0.74

Structure (SMILES) | IC50 [µM]
O=C(/C=C/c1ccc(-c2nc3ccc(Cl)cc3[nH]2)cc1)NCc1cccc(F)c1 | 0.64
CCCCN(CCCC)CCOc1cc2c(cc1OC)CCN2C(=O)/C=C/c1ccccc1Cl | 1.18
CC(=O)CCc1ccc(OCCN(Cc2ccccc2C(F)(F)F)c2ccc(C#N)c(C(F)(F)F)c2)cc1 | 0.27
COc1cccc(NC(=O)Nc2cc(-c3ccc4[nH]ncc4c3)cc3c2CNC3=O)c1 | 0.12
Cc1cc(NN=Cc2ccccc2Cl)c2ccccc2n1 | 0.9
CCN(CCCN1CCCCC1)c1cc(C)nc(Nc2cc(C)ccc2C)n1 | 0.66
O=C(Nc1ccc(OC2CCN(Cc3ccc(F)cc3)C2)c(Cl)c1)c1cccs1 (stereo not given) | 0.13
COc1cc(C=Cc2ccc3ccccc3n2)cc(Br)c1OCC(=O)N(C)C | 1.1
CCOc1ccc2nc(C)cc(NN=Cc3ccccc3Cl)c2c1 | 0.19
CC(C)c1ccc(N2CCN(CCCCNC(=O)c3ccc(NC(=O)c4cc(Cl)cc(Cl)c4)cc3)CC2)cc1 | 0.16
FC(F)(F)c1cccc(N2CCC(CN3CCC(c4c[nH]c5ccccc45)CC3)CC2)n1 | 0.98
CNC(=O)/C=C/c1cc(NC(=O)Nc2cc(C)nc3c(F)cccc23)ccc1OC | 0.91
CC(=O)N1c2ccccc2C(C)=CC1(C)C | 0.94
C=CC(=O)Nc1ccc(Cl)cc1C(O)c1ccccc1 (stereo not given) | 0.18
Oc1cccc(CNCCCN(Cc2ccccc2)c2ccccc2)c1 | 0.6
NCC(=O)Nc1cccc(Nc2nccc(-c3c(-c4cccc(NC(=O)c5ccccc5)c4)nn4ccccc34)n2)c1 | 0.43
CNc1ccc(CNCc2cccc(-c3ccc(-c4nc5ccccc5[nH]4)s3)c2)cc1 | 0.73
O=C(/C=C/c1ccc(Cl)c(Cl)c1)NCCCCCN1CCCN(C(=O)Nc2cccc(Cl)c2)CC1 | 0.67
O=C(c1cc(-c2cccs2)[nH]n1)N1CCN(S(=O)(=O)c2ccc(Cl)s2)CC1 | 0.87
Fc1cccc(Cn2ncc3cc(Nc4ncnc5sc(C#Cc6ncc[nH]6)cc45)ccc32)c1 | 1.8
COC(=O)Cc1ccc(N)c2ccccc12 | 0.7
CC(C)N1CCC(N(Cc2ccc(-c3ccc(C(F)(F)F)cc3)cc2)C(=O)Cn2c(CCc3cccc(F)c3F)nc(=O)c3cccnc32)CC1 | 0.64
